“And” between values parts separate entries of the source, which are not always exact repeats. Equal values may be shown once.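 Dose response: 5 concentrations. Exposure: 48 h. Format: 96-well plates. Endpoint: linear interpolation; highest concentration if not reached. Abbreviation: GI50, concentration required for 50% inhibition of growth. TGI denotes the concentration required for complete inhibition of growth.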
Columns and labels:
Experiment in all cases: inhibition of tumour cell growth, NCI panel, 48 h
A549 NSCLC = tested on: A549 NSCLC
ACHN renal = tested on: ACHN renal
M14 melanoma = tested on: M14 melanoma
MALME-3M melanoma = tested on: MALME-3M melanoma
MCF7 breast = tested on: MCF7 breast
MOLT-4 leukemia = tested on: MOLT-4 leukemia
NCI-H23 lung = tested on: NCI-H23 lung
PC-3 prostate = tested on: PC-3 prostate
SN12C renal = tested on: SN12C renal
SNB-19 CNS = tested on: SNB-19 CNS

| SMILES | GI50 (A549 NSCLC) [µM] | TGI (A549 NSCLC) | GI50 (ACHN renal) [µM] | TGI (ACHN renal) | GI50 (M14 melanoma) [µM] | TGI (M14 melanoma) [µM] | GI50 (MALME-3M melanoma) [µM] | TGI (MALME-3M melanoma) [µM] | GI50 (MCF7 breast) [µM] | TGI (MCF7 breast) [µM] | GI50 (MOLT-4 leukemia) [µM] | TGI (MOLT-4 leukemia) [µM] | GI50 (NCI-H23 lung) [µM] | TGI (NCI-H23 lung) | GI50 (PC-3 prostate) [µM] | TGI (PC-3 prostate) [µM] | GI50 (SN12C renal) [µM] | TGI (SN12C renal) | GI50 (SNB-19 CNS) [µM] | TGI (SNB-19 CNS) |
| --- | --- | --- | --- | --- | --- | --- | --- | --- | --- | --- | --- | --- | --- | --- | --- | --- | --- | --- | --- | --- |
| CN(C)c1ncnc2c1nnn2C1OC(CO)C(O)C1O (stereo not drawn) | 3.53 | > 100 µM | 0.141 | > 54 µM | 0.0515 | 1.14 | 0.332 | 63.5 | 0.216 | > 23.4 | 0.0635 | > 100 | 0.399 | > 63.2 µM | 0.271 | > 45.5 | 0.479 | > 100 µM | 1.06 | > 100 µM |
| O=C1C2=Nc3ccccc3C(O)N2c2ccccc21 (stereo not drawn) |  | > 100 µM |  | > 100 µM |  | > 100 |  | 29.8 |  | > 100 |  | > 100 |  | 28.8 µM |  | > 100 |  | > 100 µM |  | > 100 µM |
| CN=C(NC#N)NCCSCc1nc[nH]c1C |  | > 100 µM |  | > 100 µM |  | > 100 |  | > 100 |  | > 100 |  | > 100 |  | > 100 µM |  | > 100 |  | > 100 µM |  | > 100 µM |
| C/C(=N\N=C(\[Se])N1CCN(c2ccccn2)CC1)c1ccccn1 | 0.0476 | 21.7 µM | 0.00847 | 16.9 µM | 0.0254 | 16.7 | 0.159 | 3.78 | 0.00278 | 14.3 | 0.00298 |  | 0.023 | 21.8 µM | 0.334 | 14.2 | 0.375 | 21.3 µM | 0.13 | 18.6 µM |
| CC1CCN(CCCCCOc2ccc3oc4cc(Cl)ccc4c(=O)c3c2)CC1 | 7.49 | 14.4 µM | 8.01 | 14.7 µM | 1.15 | 2.63 | 8.41 | 15.3 | 5.9 | 14.2 | 2.87 | 10.3 | 7.36 | 14.6 µM | 6.89 | 16.4 | 6.49 | 13.1 µM | 8.03 | 15.2 µM |
| O=C(CF)N(O)c1ccc(/C=C/c2ccccc2)cc1 | 1.17 | > 100 µM | 0.736 | 30 µM | 3.82 | > 100 | 24.6 | > 100 | 0.304 | > 100 | 2.72 | > 100 | 3.39 | 98.4 µM | 5.6 | > 100 | 2.67 | > 63.5 µM | 8.65 | > 100 µM |
| C/C(=C\C1=C(Cl)C(=O)c2ccccc2C1=O)C(=O)O | 21.9 | 43 µM | 18.5 | 32.7 µM | 17.7 | 31.7 | 24 | 40.2 | 17.6 | 43.3 | 28.2 | > 100 | 21.5 | 45.7 µM | 17.3 | 31.1 | 24.5 | 55.1 µM | 17.7 | 31.7 µM |
| CC(=O)c1cc2c(cc1Nc1c3ccccc3nc3occ(Cl)c13)OCO2 | 0.2 |  | 0.46 | > 100 µM | 0.316 | 37.9 | 0.0796 | 0.45 | 0.0939 | > 100 | 0.198 | > 100 | 0.238 | 2.23 µM | 0.0856 | 3.71 | 0.603 | > 100 µM | 0.601 | > 100 µM |
| COC(=O)[C@]12CC[C@@H](C)[C@H](C)[C@@H]1C1=CC[C@@H]3[C@@]4(C)C(C=O)=C[C@@](C)(COC(=O)c5ccco5)[C@@H]4C(=O)C[C@@]3(C)[C@]1(C)CC2 | 3.99 | > 100 µM | 1.22 | > 100 µM | 0.286 | > 100 | 0.0359 | 0.256 | 4.07 | 44.2 | 2.08 | 7.8 | 4.33 | > 100 µM | 3.66 | > 100 | 8.69 | > 100 µM | 6.15 | > 100 µM |
| C[C@@H]1CC[C@@H]2[C@@H]1[C@H](OC(=O)/C=C/c1ccccc1)[C@]1(C3CCCCC3)C[C@@H](NC(=O)CO)[C@@]2(C)O1 | 21 | 37 µM | 3.51 | 13.1 µM | 18.6 | 35.6 | 16.3 | 33 | 14.4 | 32.7 | 18.5 | 39.3 | 18.9 | 38.4 µM | 14.9 | 28.9 | 11.4 | 24.2 µM | 17.6 | 32.3 µM |
| CN(C)CCOc1ccc(/C(=C(/CCCl)c2ccccc2)c2ccccc2)cc1 | 1.27 | 3.24 µM and 29.9 µM | 1.8 | 6.55 µM and 31.9 µM | 0.96 |  | 0.976 |  | 0.565 |  | 1.12 |  | 1.42 | 5.52 µM and 31.3 µM | 0.901 |  | 1.57 | 6.01 µM and 30.3 µM | 1.85 | 22.6 µM and 28.5 µM |
| O=[N+]([O-])c1ccc2c(N3CCC(CCCC4CCN(c5ncnc6cc([N+](=O)[O-])ccc56)CC4)CC3)ncnc2c1 | 38.1 | > 100 µM | > 48 | > 100 µM | > 49 | > 100 | > 59.7 | > 92.1 | 0.619 | > 59.3 | 24.8 | > 100 | 2.29 | > 100 µM | 8.96 | > 100 | > 55.9 | > 100 µM | > 42.3 | > 100 µM |
| COc1ccc2nc3cc(Cl)ccc3c(N3CCN(c4ccnc(N5CCOCC5)n4)CC3)c2c1 | > 100 | > 100 µM | 9.64 | > 100 µM | > 100 | > 100 | > 100 | > 100 | 1.89 | 4.9 | 6.24 | > 100 | 8.61 | > 100 µM | 98.1 | > 100 | > 100 | > 100 µM | > 100 | > 100 µM |
| CN(C)c1ccc(/C=C2\N=C(c3ccc([N+](=O)[O-])cc3)OC2=O)cc1 |  | > 100 µM |  | > 100 µM |  | > 100 |  | > 100 |  | > 100 |  | > 100 |  | > 100 µM |  | > 100 |  | > 100 µM |  | > 100 µM |
| O=C(O)CCC(=O)c1ccc2ccc3cccc4ccc1c2c34 |  | > 100 µM |  | > 100 µM |  | > 100 |  | > 100 |  | > 100 |  | > 100 |  | > 100 µM |  | > 100 |  | > 100 µM |  | > 100 µM |
| O=C(CCCN1CCOCC1)Nc1ccc(Cn2nnc3c2C(=O)c2nnn(Cc4ccc(NC(=O)CCCN5CCOCC5)cc4)c2C3=O)cc1 | > 100 | > 100 µM | > 100 | > 100 µM | 4.59 | 43.6 | 1.21 | 2.79 | 1.03 | 2.77 | 1.61 | 4.85 | 2.33 | 5.63 µM | 3.67 | > 100 | 1.79 | 3.67 µM | 1.84 | 3.59 µM |
